# Assay results published in patent publication US20060251714A1, “Pharmaceutical formulations of amyloid inhibiting compounds” (priority 2005, published 2006).
# How the values were obtained:
# [1] = Example 10: 12-week placebo-controlled study in mild to moderate Alzheimer's Disease patients, plasma pharmacokinetics; format: in vivo, human; conditions: AD patients; for AUC∞: mean, only patients with estimable elimination rate constant
# Text: (§1) In the following examples and elsewhere herein, terms are as defined below. The pharmacokinetic parameters were derived by non-compartmental analysis using WinNonlin® (Pharsight Corporation, Mountain View, Calif.) or SAS® for Windows® (SAS Institute Inc., Cary, N.C.).
# AUCss—the area under the plasma concentrations versus time curve during a dosing interval at steady state.
# A multicenter, randomized, double-blind, placebo-controlled and parallel designed study is made with 3-APS in the formulation described in Table 5 above in patients suffering from mild to moderate Alzheimer's Disease (AD). An objective of this study is to assess the safety and tolerability of 3-APS and to assess its pharmacokinetics in AD patients. A total of fifty-eight (58) mild to moderate AD patients (MMSE scores=13 to 26) are enrolled from 6 centers in the United States. Patients are randomized to receive in 1:1:1:1 ratio of NC-758-1 at 50, 100, 150 mg BID or placebo BID for 12 weeks. Study medication is administered orally (tablet). For doses at multiples of 50 mg, multiple 50 mg tables are administered. Each patient is evaluated on 6 occasions at screening, baseline [Week 0], weeks 2, 4, 8 and 12. Blood samples are collected from each patient prior to dosing and at specified time points through 12 h post-dose after the first dose (Week 0) and the last dose (Week 12). Blood samples are also collected prior to the first dose of the day during Week 2, 4 and 8 visits.
# [2] = Hygroscopicity of the drug substance; format: physicochemical
# Method: (§2) Furthermore, the non-hygroscopic nature of the acid form makes it desirable as active pharmaceutical ingredient. To further protect against any possible gastrointestinal intolerance that could result from the acid form, the tablets are enteric-coated and a modified-release agent is added to control any rapid release of the drug in the stomach and the intestine, respectively.
# [3] = Example 8 Part I: multiple rising oral doses of NC-758 in healthy young male and elderly subjects, plasma pharmacokinetics; format: in vivo, human; conditions: fasted; for AUC∞: mean, only subjects with estimable elimination rate constant
# Method: as §1
# The pharmacokinetic profile of multiple rising oral doses of 3-APS free acid (NC-758 of Table 3 above) in healthy male young subjects (18-45 years) and healthy male and female elderly (≧55 years) subjects is assessed. For doses at multiples of 100 mg, multiple 100 mg tables are administered. […] Part I is a randomized, double-blind, placebo-controlled study to assess the pharmacokinetic profile of 2 multiple rising oral doses of NC-758 in healthy young (18-45 years) male subjects. […] In Part I, 3-APS is administered as a single dose on Days 1 and 12 and on Days 2-11, twice daily at 12 hour intervals. Blood samples are collected through 24 h after the first dose on Day 1, before each morning dose on Days 2 to 11, and through 48 h after the final dose on Day 12. For Part II, blood samples are collected through 36 h. Plasma concentrations of 3-APS are determined using a validated LC-MS/MS method.
# [4] = dog, in vivo
# Method: as §2
# [5] = Example 7 Part II: food effect, single oral 200 mg 3-APS in young male subjects, plasma pharmacokinetics; format: in vivo, human; conditions: single oral 200 mg (Table 3 formulation); for Cmax: male, po, 200 mg
# Method: as §1
# Following single oral dosing of 200 mg 3-APS (modified-release coated formulation as described in Table 3 above) to young male subjects (aged between 18 and 45 years) under fasted and fed (high fat) conditions, maximum plasma concentrations of 3-APS are attained […] post-dose under fasted and fed conditions, respectively (Table 9A).
# [6] = 50 mg BID (Table 5 tablet), Week 0 (single dose), n = 15, mean
# [7] = 100 mg BID (Table 5 tablet), Week 0 (single dose), n = 16, mean
# [8] = 150 mg BID (Table 5 tablet), Week 0 (single dose), n = 14, mean
# [9] = NC-758 100 mg BID, Day 12 (repeated), young (18-45 years) male subjects, n = 6, mean
# [10] = NC-758 200 mg BID, Day 1, elderly (≧55 years) male and female subjects, n = 6, mean
# [11] = NC-758 200 mg BID, Day 1, young (18-45 years) male subjects, n = 6, mean
# [12] = NC-758 200 mg BID, Day 12 (repeated), elderly (≧55 years) male and female subjects, n = 6, mean
# [13] = NC-758 200 mg BID, Day 12 (repeated), young (18-45 years) male subjects, n = 5, mean
compound,measurement,setting,value
"NCCCS(=O)(=O)O [3-APS, 3-amino-1-propanesulfonic acid]",AUC∞,"[1]; 50 mg BID (Table 5 tablet), Week 0 (single dose)",1396 ng·h/mL
same,AUC(0-t),[1]; [6],1321 ng·h/mL
same,Cmax,[1]; [6],310 ng/mL
same,Tmax,"[1]; 50 mg BID (Table 5 tablet), Week 12 (repeated), n = 15, median",3 h
same,AUC∞,"[1]; 100 mg BID (Table 5 tablet), Week 0 (single dose)",2569 ng·h/mL
same,AUC(0-t),[1]; [7],2467 ng·h/mL
same,Cmax,[1]; [7],618 ng/mL
same,Tmax,"[1]; 100 mg BID (Table 5 tablet), Week 0 (single dose), n = 16, median",4.5 h
same,Tmax,"[1]; 100 mg BID (Table 5 tablet), Week 12 (repeated), n = 14, median",3.5 h
same,AUC∞,"[1]; 150 mg BID (Table 5 tablet), Week 0 (single dose)",3418 ng·h/mL
same,AUC(0-t),[1]; [8],2792 ng·h/mL
same,Cmax,[1]; [8],624 ng/mL
same,Tmax,"[1]; 150 mg BID (Table 5 tablet), Week 12 (repeated), n = 11, median",3 h
same,hygroscopic nature,[2],non-hygroscopic
same,AUC∞,"[3]; NC-758 100 mg BID, Day 1, young (18-45 years) male subjects",1017 ng·h/mL
same,Cmax,"[3]; NC-758 100 mg BID, Day 1, young (18-45 years) male subjects, n = 6, mean",282 ng/mL
same,AUC0-12h,[3]; [9],1434 ng·h/mL
same,Cmax,[3]; [9],256 ng/mL
same,AUC∞,"[3]; NC-758 200 mg BID, Day 1, elderly (≧55 years) male and female subjects",5503 ng·h/mL
same,AUC0-12h,[3]; [10],5020 ng·h/mL
same,Cmax,[3]; [10],897 ng/mL
same,AUC∞,"[3]; NC-758 200 mg BID, Day 1, young (18-45 years) male subjects",3206 ng·h/mL
same,AUC0-12h,[3]; [11],2865 ng·h/mL
same,Cmax,[3]; [11],517 ng/mL
same,AUC0-12h,[3]; [12],6287 ng·h/mL
same,Cmax,[3]; [12],880 ng/mL
same,AUC0-12h,[3]; [13],4152 ng·h/mL
same,Cmax,[3]; [13],581 ng/mL
same,tolerability,[4],better tolerated than the sodium salt form
same,AUC(0-inf),"[5]; human, plasma, Fasting Arm, mean, only subjects with estimable elimination rate constant",2400 ng·h/mL
same,AUC(0-t),"[5]; human, plasma, Fed Arm (high fat), n = 8, mean, read-out: AUC0-Tlast",3870 ng·h/mL
same,Tmax,"[5]; human, plasma, Fed Arm (high fat), n = 8, median",13.5 h
same,Cmax,"[5]; human, plasma, Fasting Arm, n = 8, mean",594 ng/mL
same,Cmax,"[5]; human, plasma, Fed Arm (high fat), n = 8, mean",631 ng/mL
same,AUC0-Tlast,"[5]; Fasting Arm, n = 8, mean",2196 ng·h/mL
same,AUC∞,"[5]; Fed Arm (high fat), mean, only subjects with estimable elimination rate constant",4497 ng·h/mL
